In data set [1] the test system is cytosolic PDE activity in HT29 cells. More on the design: method as in PMID 15497183. As to conditions: cited from earlier work.
For data set [2], the target named is T1, PDE 3B (recombinant, EC 3.1.4.17) (Homo sapiens, UniProt Q13370).
T1 construct: purchased Sigma Aldrich (St. Louis, MO, USA)
The data set can be described thus: cAMP-specific PDE activity assay (cell-free, radiochemical). As to conditions: for IC50: mean ± SD, n = 3–4, read-out: IC50 of cyanidin and anthocyanins; for influence on PDE activity (in words): c = 25–2000 µM; for IC50 of single anthocyanins: given in µg/mL. In kind it is biochemical. Here is the method: The inhibitory effect of each extract on PDE 3B was measured according to the method published by Pöch et al. with slight modifications. One hundred microliters (100 µL) of the sample and 20 µL of PDE 3B (200 Units/mL) were incubated for 15 min at 4°C. Afterwards, a 50 µL volume of cAMP Mix (30 mM Tris/HCl pH 7.4, 9 mM MgCl2, 3 mM 5′AMP, 3 µM cAMP, 2.6 µCi/mL [2,8-^3H]-cAMP) was added and the mixture incubated for 25 min at 37 °C to allow for reaction. […] Experiments were performed in triplicate, and IC50 values were determined after at least three independent experiments. The ranges of test concentrations of extracts and single substances were intentionally chosen to align with similar ranges used for previous studies (extracts < 600 µg/mL; ACs < 2000 µM) to facilitate comparison with previous experiments.

Details of data set [3]: method as in PMID 22913378. As to conditions: cited from earlier work.
Data set [4] concerns PDE isolated from the lung tumor xenograft cell line LXFL529L. More on the design: method as in PMID 29113064. To be noted: cited from earlier work.
Data set [5] concerns phosphodiesterase from rat adipocytes. More on the design: method as in PMID 1384499. To be noted: cited from earlier work.
The next data set relates to PDE 1. Also on record: method as in PMID 27558680. As to conditions: in vitro; cited from earlier work.
The test system of the next data set is human PDE 5A1. Also on record: method as in PMID 15769121. To be noted: cited from earlier work.
The test system of data set [6] is PDE in human platelet lysates. Also on record: method as in PMID 25247601. To be noted: in vitro; cited from earlier work.
Data set [7] deals with phosphodiesterase 3′,5′-cyclic nucleotide 5′nucleotidohydrolase. More on the design: method as in PMID 18617377. As to conditions: 0.01%, diluted in dimethyl sulfoxide; cited from earlier work.

“Also recorded” adds a separate entry of the source.

T1 sequence (Q13370 whole entry, species assumed): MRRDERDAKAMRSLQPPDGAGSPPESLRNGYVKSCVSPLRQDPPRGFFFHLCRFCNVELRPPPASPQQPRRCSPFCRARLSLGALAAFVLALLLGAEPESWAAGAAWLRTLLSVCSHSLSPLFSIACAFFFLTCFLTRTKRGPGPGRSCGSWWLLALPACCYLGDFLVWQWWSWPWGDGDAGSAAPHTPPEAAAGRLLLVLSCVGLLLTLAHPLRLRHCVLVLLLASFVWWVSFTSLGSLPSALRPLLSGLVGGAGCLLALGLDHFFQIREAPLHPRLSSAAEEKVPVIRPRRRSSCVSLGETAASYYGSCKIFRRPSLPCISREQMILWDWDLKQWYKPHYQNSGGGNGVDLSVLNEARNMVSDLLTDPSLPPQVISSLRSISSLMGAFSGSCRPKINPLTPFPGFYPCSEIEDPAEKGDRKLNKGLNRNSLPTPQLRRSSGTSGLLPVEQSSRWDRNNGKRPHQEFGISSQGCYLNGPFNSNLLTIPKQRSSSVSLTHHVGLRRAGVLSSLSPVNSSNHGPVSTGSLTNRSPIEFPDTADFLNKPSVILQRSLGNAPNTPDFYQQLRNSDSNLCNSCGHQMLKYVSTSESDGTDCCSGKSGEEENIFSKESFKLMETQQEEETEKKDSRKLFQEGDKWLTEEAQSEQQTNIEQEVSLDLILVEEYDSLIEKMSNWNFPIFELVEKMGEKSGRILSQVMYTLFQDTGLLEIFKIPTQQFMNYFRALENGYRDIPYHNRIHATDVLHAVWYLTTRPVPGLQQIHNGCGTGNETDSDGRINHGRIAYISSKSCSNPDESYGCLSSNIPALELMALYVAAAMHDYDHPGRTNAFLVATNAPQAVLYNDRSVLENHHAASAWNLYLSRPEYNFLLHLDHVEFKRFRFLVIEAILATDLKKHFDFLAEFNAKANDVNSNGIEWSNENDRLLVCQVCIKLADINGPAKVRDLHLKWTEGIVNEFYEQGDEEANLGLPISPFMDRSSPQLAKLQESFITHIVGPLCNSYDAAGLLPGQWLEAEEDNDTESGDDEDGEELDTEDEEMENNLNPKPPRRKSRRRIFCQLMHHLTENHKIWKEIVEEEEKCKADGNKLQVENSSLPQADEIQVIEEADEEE

In general, IC50 refers to the concentration that gives 50% inhibition. Take `Oc1cc(O)c2cc(O)c(-c3ccc(O)c(O)c3)[o+]c2c1` [cyanidin, cyanidin chloride]: the concentration for half-maximal inhibition (IC50) in data set [1] was about 175 µM; in data set [2], 105 ± 11 µM. Besides, the remaining activity at 11 µM in data set [2] (c = 11 µM, read-out: rel. PDE 3B activity (% of solvent control)) came out at 94.7 ± 2.8%. Also, the remaining activity at 271 µM in data set [2] (c = 271 µM, read-out: rel. PDE 3B activity (% of solvent control)) turned out to be 28.7 ± 6.5%. Also, the “stability in cell culture medium (in words)” value in data set [3] was “degraded rapidly”.

`O=c1cc(-c2ccc(O)c(O)c2)oc2cc(O)cc(O)c12` [luteolin]: the IC50 in [4] is 41 ± 10 µM. In addition, the “inhibitory potency relative to 3-isobutyl-2-methylxanthine (in words)” value in [5] is recorded as “comparable to or greater than 3-isobutyl-2-methylxanthine”.

With `O=c1c(O)c(-c2ccc(O)c(O)c2)oc2cc(O)cc(O)c12` [Quercetin], the “inhibitory potency relative to 3-isobutyl-2-methylxanthine (in words)” value in data set [5] was “comparable to or greater than 3-isobutyl-2-methylxanthine”.

As to `O=C(O)c1cc(O)c(O)c(O)c1` [gallic acid], in the data set on PDE 1, the concentration for half-maximal inhibition (IC50) was 325 ± 3.62 µM.

Regarding `O=C(/C=C/c1ccc(O)c(O)c1)O[C@@H]1[C@H](O)C[C@@](O)(C(=O)O)C[C@H]1OC(=O)/C=C/c1ccc(O)c(O)c1` (stereo in doubt) [3,4-dicaffeoylquinic acid], the IC50 in data set [4] was over 1000 µM.

As to `COc1cc(-c2[o+]c3cc(O)cc(O)c3cc2O)cc(OC)c1O` [malvidin], the IC50 in the data set with human PDE 5A1 was 24.9 µM.

In the case of `OC[C@H]1O[C@@H](Oc2cc3c(O[C@@H]4O[C@H](CO)[C@@H](O)[C@H](O)[C@H]4O)cc(O)cc3[o+]c2-c2ccc(O)c(O)c2)[C@H](O)[C@@H](O)[C@@H]1O.[Cl-]` [cyanidin-3,5-diglucoside, cyanidin-3,5-diglucoside chloride], the “influence on PDE activity (in words)” value in data set [2] was “inactive; also recorded: no effect”.

As to `O=c1c(O)c(-c2ccc(O)cc2)oc2cc(O)cc(O)c12` [kaempferol], the half-inhibitory concentration (IC50) in [5] was 58 µM.

With `O=c1c(-c2ccc(O)cc2)coc2cc(O)cc(O)c12` [genistein], the “inhibitory potency relative to 3-isobutyl-2-methylxanthine (in words)” value in data set [5] was “comparable to or greater than 3-isobutyl-2-methylxanthine”.

On to `Cn1c(=O)c2c(ncn2C)n(C)c1=O` [caffeine], for which the IC50 in [6] is 700 µM. Besides, the PDE inhibition in [7] is 56%.

Turning to `C[C@@H]1O[C@@H](OC[C@H]2O[C@@H](Oc3cc4c(O)cc(O)cc4[o+]c3-c3ccc(O)c(O)c3)[C@H](O)[C@@H](O)[C@@H]2O)[C@H](O)[C@H](O)[C@H]1O.[Cl-]` [cyanidin-3-rutinoside, cyanidin-3-rutinoside chloride], in data set [2], the “influence on PDE activity (in words)” value is “inactive”.

As for `CC(C)Cn1c(=O)n(C)c(=O)c2[nH]cnc21`, the IC50 in data set [5] was 30 to 50 µM.

Turning to `COc1cc(-c2[o+]c3cc(O)cc(O)c3cc2O[C@@H]2O[C@H](CO)[C@@H](O)[C@H](O)[C@H]2O)cc(OC)c1O.[Cl-]` [malvidin-3-glucoside, malvidin-3-glucoside chloride], the IC50 in the data set on human PDE 5A1 is 35.4 µM. For the same compound, the “minimum rel. PDE activity (% of solvent control)” value in [2] (c = 1328 µM) was 71.4 ± 9.7%.

As for `COc1cc(-c2[o+]c3cc(O)cc(O)c3cc2O[C@@H]2O[C@H](CO)[C@@H](O)[C@H](O)[C@H]2O)cc(O)c1O.[Cl-]` [petunidin-3-glucoside, petunidin-3-glucoside chloride], the “rel. PDE activity (% of solvent control)” value in data set [2] (c = 600 µM) was “around 40%”. Moreover, the IC50 in data set [2] amounted to 448 ± 39 µM.

With `OC[C@H]1OC(Oc2cc3c(O)cc(O)cc3[o+]c2-c2ccc(O)c(O)c2)[C@H](O)[C@@H](O)[C@H]1O.[Cl-]` (stereo partly drawn) [cyanidin-3-galactoside, cyanidin-3-galactoside chloride], in data set [2], the “concentration below which no influence on PDE activity” value is recorded as “below 884 µM” and the “influence on PDE activity (in words)” value was “little PDE inhibition”. In addition, in data set [2] (c = 2000 µM), the “rel. PDE activity (% of solvent control)” value was determined as 52.3 ± 13.7%.

As for `Oc1cc(O)c2cc(O[C@@H]3OC[C@H](O)[C@H](O)[C@H]3O)c(-c3ccc(O)c(O)c3)[o+]c2c1.[Cl-]` [cyanidin-3-arabinoside, cyanidin-3-arabinoside chloride], the “rel. PDE activity (% of solvent control)” value in data set [2] (c = 600 µM) was found to be 32.3 ± 2.9%. In addition, in data set [2], the “IC50 of single anthocyanins” value came out at 108 ± 6 µg/mL and the IC50 is 257 ± 13 µM.

Take `COc1cc(-c2[o+]c3cc(O)cc(O)c3cc2O[C@@H]2O[C@H](CO)[C@@H](O)[C@H](O)[C@H]2O)ccc1O.[Cl-]` [peonidin-3-glucoside, Peonidin-3-glucoside chloride]: in data set [2], the “concentration above which PDE activity significantly diminished” value is listed as “above 55 µM”, the “IC50 of single anthocyanins” value was found to be 56 ± 20 µg/mL and the IC50 worked out at 120 ± 44 µM. Also, in [2] (c = 271 µM), the “rel. PDE 3B activity (% of solvent control)” value is reported as “comparable to those seen with caffeine”.

For the compound `O=c1c(O)c(-c2cc(O)c(O)c(O)c2)oc2cc(O)cc(O)c12` [myricetin], the IC50 in data set [5] is 125 µM.

Regarding `O=C(/C=C/c1ccc(O)c(O)c1)O[C@@H]1C[C@](O)(C(=O)O)C[C@@H](O)[C@H]1O` [chlorogenic acid], the IC50 with PDE 1 is 36.7 ± 1.6 µM.

Consider `OC[C@H]1O[C@@H](Oc2cc3c(O)cc(O)cc3[o+]c2-c2ccc(O)c(O)c2)[C@H](O)[C@@H](O)[C@@H]1O.[Cl-]` [cyanidin-3-glucoside, cyanidin-3-glucoside chloride], for which, in data set [2] (c = 600 µM), the “inhibition of PDE 3B” value came out at 63% and the “rel. PDE activity (% of solvent control)” value is “around 40%”. For the same compound, in data set [2], the “IC50 of single anthocyanins” value was 134 ± 25 µg/mL and the half-inhibitory concentration (IC50) turned out to be 299 ± 56 µM. Also, in data set [7], the PDE inhibition is on record as 99%.

The values are drawn from publication PMC7555035, “In Vitro Inhibition of Phosphodiesterase 3B (PDE 3B) by Anthocyanin-Rich Fruit Juice Extracts and Selected Anthocyanins” (International Journal of Molecular Sciences, 2020).
